# Assay results from the NIST ThermoML archive (doi:10.1021/je050013y).
# ± gives the expanded uncertainty stated by the source.
# How the values were obtained:
# [1] = refractive index (Na D-line) (dimensionless); conditions: 293.15 K; 101.33 kPa; Liquid; Standard Abbe refractometry
# [2] = 293.15 K; 101.33 kPa; Liquid
refractive index [1],mass density [2] [kg/m3],SMILES
1.378 ± 0.0007,840.2 ± 4.5,"COC(C)(C)OC [3,3-dimethyl-2,4-dioxapentane]"
1.3289 ± 0.0007,786.5 ± 0.3,CO [methanol]

SMILES,refractive index [1],mass density [2] [kg/m3]
CC(C)=O [acetone],1.3589 ± 0.0007,784.6 ± 3
